Assay results from ChEMBL document CHEMBL5143656, “Polyphenolic compounds: Synthesis, assessment of antimicrobial effect and enzymes inhibition against important medicinal enzymes with computational details” (Bioorg Med Chem Lett, 2022).
Converted amounts (≈) assume the structure as drawn.

Legend:
Acetylcholinesterase = Acetylcholinesterase (Homo sapiens, UniProt P22303); test: Inhibition of AChE (unknown origin) using […] as substrate incubated for 10 mins by Ellman's method
Cyberlindnera jadinii = test: Antimicrobial activity Candida utilis against incubated for 24 hrs; format: functional; details: Williopsis jadinii
Klebsiella pneumoniae = test: Antimicrobial activity Klebsiella pneumoniae against incubated for 24 hrs; format: functional
Staphylococcus aureus = test: Antimicrobial activity Staphylococcus aureus against incubated for 24 hrs; format: functional
Cholinesterase = Cholinesterase (Homo sapiens, UniProt P06276); test: Inhibition of BChE (unknown origin) using […] as substrate incubated for 10 mins by Ellman's method
Candida albicans = test: Antimicrobial activity Candida albicans against incubated for 24 hrs; format: functional
PC-3 = test: Cytotoxicity in human PC3 cells assessed as reduction in cell viability incubated for 24 hrs by MTT assay; format: functional, cell-based; details: PC-3, 24 h
Tyrosinase [1] = biological target: T1, Tyrosinase (Homo sapiens, UniProt P14679); test: Inhibition of tyrosinase (unknown origin) using L-DOPA as substrate incubated for 10 mins
T1 sequence (P14679 whole entry): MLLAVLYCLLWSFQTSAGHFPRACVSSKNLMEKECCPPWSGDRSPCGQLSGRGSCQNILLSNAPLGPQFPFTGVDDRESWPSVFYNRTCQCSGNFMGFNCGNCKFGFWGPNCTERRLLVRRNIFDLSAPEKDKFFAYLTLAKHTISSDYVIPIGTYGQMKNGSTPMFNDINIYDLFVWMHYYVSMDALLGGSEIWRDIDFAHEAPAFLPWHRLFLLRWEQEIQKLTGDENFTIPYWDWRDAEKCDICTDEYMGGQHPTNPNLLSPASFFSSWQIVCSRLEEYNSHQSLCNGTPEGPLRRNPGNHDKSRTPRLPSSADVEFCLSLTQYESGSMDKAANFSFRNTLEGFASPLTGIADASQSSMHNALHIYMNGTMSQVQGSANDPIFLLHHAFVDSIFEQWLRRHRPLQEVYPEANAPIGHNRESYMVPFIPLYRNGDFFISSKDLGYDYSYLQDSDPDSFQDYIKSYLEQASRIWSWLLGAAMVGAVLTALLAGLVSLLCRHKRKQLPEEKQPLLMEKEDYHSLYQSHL

Escherichia coli = test: Antimicrobial activity Escherichia coli against incubated for 24 hrs; format: functional
Enterococcus faecalis = test: Antimicrobial activity Enterococcus faecalis against incubated for 24 hrs; format: functional
Tyrosinase [2] = biological target: T1, Tyrosinase; test: Inhibition of tyrosinase (unknown origin)

Sequence of Cholinesterase (P06276 whole entry): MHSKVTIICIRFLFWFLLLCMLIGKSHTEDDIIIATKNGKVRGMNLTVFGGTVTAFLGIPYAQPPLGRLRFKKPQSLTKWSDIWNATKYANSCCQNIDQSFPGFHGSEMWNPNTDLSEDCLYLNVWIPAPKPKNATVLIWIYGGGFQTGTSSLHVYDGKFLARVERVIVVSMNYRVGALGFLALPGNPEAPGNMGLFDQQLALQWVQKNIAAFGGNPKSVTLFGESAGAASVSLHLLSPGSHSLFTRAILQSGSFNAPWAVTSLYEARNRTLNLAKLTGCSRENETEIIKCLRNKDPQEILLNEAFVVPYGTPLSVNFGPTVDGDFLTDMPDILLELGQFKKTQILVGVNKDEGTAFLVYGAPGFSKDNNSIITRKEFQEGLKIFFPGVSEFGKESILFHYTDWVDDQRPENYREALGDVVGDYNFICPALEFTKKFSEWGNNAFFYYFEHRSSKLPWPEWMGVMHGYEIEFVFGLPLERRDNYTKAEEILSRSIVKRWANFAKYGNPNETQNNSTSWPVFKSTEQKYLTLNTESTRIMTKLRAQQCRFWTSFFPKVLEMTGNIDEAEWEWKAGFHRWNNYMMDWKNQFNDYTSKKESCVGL
Sequence of Acetylcholinesterase (P22303 whole entry): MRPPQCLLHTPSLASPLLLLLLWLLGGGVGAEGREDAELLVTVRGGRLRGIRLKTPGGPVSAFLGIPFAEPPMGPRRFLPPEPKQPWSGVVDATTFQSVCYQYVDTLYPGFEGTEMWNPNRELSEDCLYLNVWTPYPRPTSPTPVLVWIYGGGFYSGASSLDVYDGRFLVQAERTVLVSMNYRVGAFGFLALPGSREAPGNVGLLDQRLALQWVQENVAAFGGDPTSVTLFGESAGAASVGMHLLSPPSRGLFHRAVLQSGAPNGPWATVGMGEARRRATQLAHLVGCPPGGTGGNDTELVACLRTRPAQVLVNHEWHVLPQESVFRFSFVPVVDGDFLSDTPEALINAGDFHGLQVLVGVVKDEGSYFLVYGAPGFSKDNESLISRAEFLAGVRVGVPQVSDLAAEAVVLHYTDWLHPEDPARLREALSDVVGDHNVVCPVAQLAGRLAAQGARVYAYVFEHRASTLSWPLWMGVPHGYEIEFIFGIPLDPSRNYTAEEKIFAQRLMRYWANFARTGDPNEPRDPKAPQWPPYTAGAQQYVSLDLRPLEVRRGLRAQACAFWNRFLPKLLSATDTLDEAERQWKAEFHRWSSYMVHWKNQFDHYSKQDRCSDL

CCC(c1ccc(O)c(OC)c1)c1cccc(O)c1O (stereo not drawn) gave an IC50 (Acetylcholinesterase) of 5.66 µM, an MIC (Cyberlindnera jadinii) of 467 µg/mL (≈ 1700 µM) and an MIC (Klebsiella pneumoniae) of 277 µg/mL (≈ 1010 µM). The MIC (Staphylococcus aureus) was 284 µg/mL (≈ 1040 µM), the IC50 (Cholinesterase) was 2.82 µM and the MIC (Candida albicans) was 448 µg/mL (≈ 1630 µM). It also gave an IC50 (PC-3) of 16.1 µg/mL (≈ 58.9 µM), an IC50 (Tyrosinase [1]) of 2.32 µM and an MIC (Escherichia coli) of 181 µg/mL (≈ 659 µM). The MIC (Enterococcus faecalis) was 369 µg/mL (≈ 1350 µM).

CCC(c1ccc(O)c(OC)c1)c1ccc(OC)cc1O (stereo not drawn) gave an IC50 (Acetylcholinesterase) of 4.76 µM, an MIC (Cyberlindnera jadinii) of 249 µg/mL (≈ 864 µM) and an MIC (Klebsiella pneumoniae) of 204 µg/mL (≈ 707 µM). For the same compound, the MIC (Staphylococcus aureus) was 184 µg/mL (≈ 638 µM), the IC50 (Cholinesterase) was 2.25 µM and the MIC (Candida albicans) was 220 µg/mL (≈ 761 µM). For the same compound, the IC50 (PC-3) was 12.2 µg/mL (≈ 42.2 µM), the IC50 (Tyrosinase [1]) was 2.83 µM and the MIC (Escherichia coli) was 269 µg/mL (≈ 933 µM). The MIC (Enterococcus faecalis) was 112 µg/mL (≈ 389 µM).

Work on O=c1c(O)c(-c2ccc(O)cc2)oc2cc(O)cc(O)c12 [KAEMPFEROL] yielded an IC50 (Tyrosinase [2]) of 65.1 µM.

In the case of O=C(/C=C/c1ccc(O)cc1)OC[C@H]1O[C@@H](Oc2c(-c3ccc(O)cc3)oc3cc(O)cc(O)c3c2=O)[C@H](O)[C@@H](O)[C@@H]1O [TILIROSIDE], the IC50 (Tyrosinase [2]) is reported as 78.5 µM.
